{"source": "patent US11986507B1", "about": "“Micronutrient composition to improve men's health” (priority 2023, dated 2024)", "format_in_all_cases": "cell-based", "key": {"[1]": {"tested_on": "Mouse Leyden TM3 cells", "test": "Testosterone production assay in TM3 cells, normal conditions (testosterone ELISA)", "description": "(§1) Testosterone production assay: Mouse Leyden TM3 cells (ATCC) were cultured at 37° C., 5% CO2, in growth medium: 1:1 mixture of Ham's F12 medium and Dulbecco's modified Eagle's medium with 2.5 mM L-Glutamine, 0.5 mM Sodium Pyruvate, 1.2 g/L Sodium Bicarbonate and 15 mM HEPES, 92.5%; horse serum, 5%; fetal bovine serum, 2.5%. TM3 cells were seeded in 96-well plates covered with fibronectin or collagen (COSTAR) in […] growth medium. After reaching confluency cells were supplied with tested components in 100 mcl growth medium for 48 hour incubation. In some tests we also used additions of TNF alpha at 1 ng/ml and 10 ng/ml as indicated in appropriate figure legends. Testosterone content in 50 mcl conditioned cell culture medium samples was assayed with testosterone ELISA assay (DRG #EIA-1559) as described in the manufacturer's protocol.\nThe concentration of ingredients were Rosemary extract 20 mcg/ml, Fenugreek-20 mcg/ml, Cassia nomane—20 mcg/ml, 3′3-di indolylmethylene—5 mcg/ml, Zinc—2 mcg/ml, Phosphatidylserine—20 mcg/ml, Vitamin D—5 mcg/ml, Niacin—20 mcg/ml, Theanine—2 mcg/ml, Aspartic acid—2 mcg/ml, Arginine—2 mcg/ml and DHEA—2 mcg/ml."}, "[2]": {"tested_on": "Mouse Leyden TM3 cells", "test": "Testosterone production assay in TM3 cells under pro-inflammatory conditions (TNF alpha)", "settings": "10 ng/ml TNFa; for effect on testosterone secretion (in words): 48 h, in the presence and absence of DHEA (FIG. 3)", "description": "as §1\nIt is known that chronic inflammation, such as in the presence of TNF alpha, can suppress testosterone production, which has physiological implications as it is related to an increased risk of infertility. Incubation was for 48 h with 10 ng/ml TNFa (all samples) and 1 mcg/ml DHEA or w/o DHEA. Data are presented as % of no additions Control. We evaluated the effects of micronutrients on testosterone production in Leydig cells exposed to a proinflammatory factor—TNF alpha."}, "[3]": {"tested_on": "Human aortic smooth muscle cells (AoSMC)", "test": "Collagen gel contraction by AoSMC", "settings": "individual components (FIG. 6)", "description": "Collagen gel contraction by AoSMC: Gel Contraction Assay: Human aortic smooth muscle cells (AoSMS) were obtained from Lonza Corporation and cultured in DMEM cell culture medium (ATCC) supplemented with 5% fetal bovine serum (ATCC). For experiments cells were suspended in DMEM medium at 500,000 per mL by trypsinization and mixed with equal volume of 2 mg/ml bovine skin collagen (Sigma) solution in DMEM. Resulting cell suspension was distributed at 300 mcl per well of plastic 24 well plate pretreated with 10 mg/ml bovine serum albumin in phosphate buffered saline. Collagen gels, formed in the wells after one hour incubation at 37° C., were supplemented with 500 mcl DMEM containing indicated amounts of tested compounds. After 24 hours incubation at 37° C. pictures of the wells were taken with digital photo camera and gel surface area was measured in pixels using ImageJ scientific software. Gel contraction was expressed as percentage of unsupplemented control using the following formula: (No Cell Control Gel Area−Tested Sample Gel Area)/(No Cell Control Gel Area−Not Supplemented Control Gel Area)*100%. All experiments were done in triplicates and results are expressed as mean values+/−SD."}, "[4]": {"tested_on": "IL6 release by Human Aortic Endothelial Cells (HAEC)", "test": "IL6 secretion by human aortic endothelial cells (HAEC) in the presence of LPS (ELISA)", "settings": "24 h, 20 ng/ml LPS, with 200 mcM Ascorbate or w/o Ascorbate (FIG. 13)", "description": "Cytokine assay in Human Aortic endothelial cells (AoEC): Human Aortic endothelial cells (AoEC, Lonza) were cultured in EBG-2 cell culture medium (Lonza) and used in experiments at 5-8 passages. AoEC were seeded in 96-well plates covered with fibronectin or collagen (COSTAR) in 100 mcl/well growth medium. After reaching confluency cells were supplemented with tested components in 100 mcl growth medium for 48 hour incubation. Levels of cytokines were assayed with corresponding ELISA assays (R&D Systems).\nThe test was carried out by incubating HAEC cells for 24 h in the presence of 20 ng/ml LPS (all samples) and 200 mcM Ascorbate or w/o Ascorbate."}}, "data": [{"compound": "C[C@]12CC[C@H](O)CC1=CC[C@@H]1[C@@H]2CC[C@]2(C)C(=O)CC[C@@H]12", "note": "[DHEA, Dehydroepiandrosterone]", "values": [{"measurement": "increase of testosterone secretion compared to control", "setting": "[1]; 11 mcg/ml (FIG. 2)", "value": 1402, "unit": "%"}, {"measurement": "testosterone secretion, % of Control", "setting": "[1]; 11 mcg/ml (FIG. 2)", "value": "1402 % of Control"}, {"measurement": "increase of testosterone secretion compared to control", "setting": "[1]; 33 mcg/ml (FIG. 2)", "value": 2361, "unit": "%"}, {"measurement": "increase of testosterone secretion compared to control", "setting": "[1]; applied individually, DHEA 2 mcg/ml (FIG. 1)", "value": 161, "unit": "%"}, {"measurement": "decrease of testosterone secretion compared to normal Control", "setting": "[2]; 1 mcg/ml DHEA, 48 h (FIG. 3)", "value": "about 48%"}]}, {"compound": "CC(=O)[O-].CC(=O)[O-].[Zn+2]", "note": "[zinc, Zinc Acetate Dihydrate]", "values": [{"measurement": "effect on testosterone secretion (in words)", "setting": "[2]", "value": "decreasing"}, {"measurement": "SMC relaxation by individual compounds", "setting": "[3]", "value": 69, "unit": "%"}]}, {"compound": "Phosphatidylserine", "values": [{"measurement": "effect of individual compounds on IL-6 secretion (in words)", "setting": "[4]", "value": "significant inhibitory effect"}]}, {"compound": "Oc1ccc(C=Cc2cc(O)cc(O)c2)cc1", "note": "[resveratrol]", "values": [{"measurement": "effect on testosterone secretion (in words)", "setting": "[2]", "value": "decreasing"}]}, {"compound": "C=C1CC[C@H](O)C/C1=C/C=C1\\CCC[C@]2(C)[C@@H]([C@H](C)CCCC(C)C)CC[C@@H]12", "note": "[Vitamin D, Cholecalciferol]", "values": [{"measurement": "testosterone secretion, % of Control", "setting": "[1]; 11 mcg/ml (FIG. 2)", "value": "115 % of Control"}, {"measurement": "effect of individual compounds on IL-6 secretion (in words)", "setting": "[4]", "value": "significant inhibitory effect"}]}]}
